Test results taken from article PMC8963254, “Effects of Lysine N-ζ-Methylation in Ultrashort Tetrabasic Lipopeptides (UTBLPs) on the Potentiation of Rifampicin, Novobiocin, and Niclosamide in Gram-Negative Bacteria” (Antibiotics, 2022).
In brackets after ≈: the same amount, converted by molar mass. Like-named read-outs stand apart in the source and are kept apart here. Non-standard residues stand in square brackets, D forms with d. Residues, ends and D or L forms follow the SMILES beside them. *: point of attachment. Lys(Me) = CNCCCC[C@H](N)C(=O)O; Octanoyl = CCCCCCCC(=O)*

Assays:
MRSA ATCC 33592 = type: cell-based, Staphylococcus aureus; conditions: ATCC 33592, 18 h
Method in brief: (§1)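 Minimum inhibitory concentration came from a CLSI broth dilution assay: 18 h at 37 °C, inoculum 5 × 10^5 CFU/mL final.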

S. aureus ATCC 29213 = type: cell-based, Staphylococcus aureus; conditions: ATCC 29213, 18 h
Method in brief: as §1

E. faecalis ATCC 29212 [1] = type: cell-based, Enterococcus faecalis; conditions: ATCC 29212, 18 h
Method in brief: as §1

E. faecium ATCC 27270 [2] = type: cell-based, Enterococcus faecium; conditions: ATCC 27270, 18 h
Method in brief: as §1

[3] = tested on: P. aeruginosa PA259-96196; experiment: microbe, parasite or virus in culture; type: cell-based, Pseudomonas aeruginosa; conditions: PA259-96196, 18 h
Method in brief: as §1

[4] = tested on: P. aeruginosa PA262-101856; experiment: microbe, parasite or virus in culture; type: cell-based, Pseudomonas aeruginosa; conditions: PA262-101856, 18 h
Method in brief: as §1

K. pneumoniae 113250 [5] = experiment: microbe, parasite or virus in culture; type: cell-based, Klebsiella pneumoniae; conditions: 113250, 18 h
Method in brief: as §1

MRSE 61589 = type: cell-based, Staphylococcus epidermidis; conditions: 61589, 18 h
Method in brief: as §1

MSSE 81388 = type: cell-based, Staphylococcus epidermidis; conditions: 18 h
Method in brief: as §1

[6] = tested on: P. aeruginosa PA259-96196; type: cell-based, Pseudomonas aeruginosa; conditions: for MICUTBLP: UTBLP alone
Method in brief: (§2)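 Checkerboard synergy assay: antibiotic and OMP combined at varying concentrations with 5 × 10^5 CFU/mL inoculum (final), 37 °C, 18 h; growth read as turbidity at 590 nm. FICI = sum of FICs (MIC in combination / MIC alone); ≤0.5 synergistic, 0.5–4 additive, >4 antagonistic.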

[7] = tested on: P. aeruginosa PA262-101856; type: cell-based, Pseudomonas aeruginosa; conditions: for MICUTBLP: UTBLP alone
Method in brief: as §2

P. aeruginosa PAO1 = type: cell-based, Pseudomonas aeruginosa; conditions: for MICUTBLP: UTBLP alone
Method in brief: as §2

E. coli 94393 = type: cell-based, Escherichia coli; conditions: for MICUTBLP: UTBLP alone
Method in brief: as §2

E. coli 94474 = type: cell-based, Escherichia coli; conditions: for MICUTBLP: UTBLP alone
Method in brief: as §2

E. cloacae 118564 = type: cell-based, Enterobacter cloacae; conditions: for MICUTBLP: UTBLP alone
Method in brief: as §2

K. pneumoniae 113250 [8] = type: cell-based, Klebsiella pneumoniae; conditions: for MICUTBLP: UTBLP alone
Method in brief: as §2

E. faecalis ATCC 29212 [9] = type: cell-based, Enterococcus faecalis
Method in brief: as §2

E. faecium ATCC 27270 [10] = type: cell-based, Enterococcus faecium
Method in brief: as §2

[11] = UTBLP in combination with novobiocin
[12] = UTBLP in combination with rifampicin
[13] = novobiocin in combination with the UTBLP
[14] = rifampicin in combination with the UTBLP
[15] = UTBLP in combination with chloramphenicol
[16] = chloramphenicol in combination with the UTBLP
[17] = UTBLP alone, plate with chloramphenicol

CCCCCCCC(=O)NCCCC[C@H](NC(=O)CCCCCCC)C(=O)N[C@@H](CCCCNC)C(=O)N[C@@H](CCCCNC)C(=O)N[C@@H](CCCCNC)C(=O)N[C@@H](CCCCNC)C(N)=O [UTBLP 6] (Octanoyl-K(Octanoyl)[Lys(Me)][Lys(Me)][Lys(Me)][Lys(Me)]-NH2)
MIC (MRSA ATCC 33592): >128 µg/mL
MIC (S. aureus ATCC 29213): 128 µg/mL (≈ 132 µM)
MIC (E. faecalis ATCC 29212 [1]): 32 µg/mL (≈ 33.1 µM)
MIC (E. faecium ATCC 27270 [2]): 64 µg/mL (≈ 66.2 µM)
MIC [3]: > 128 µg/mL
MIC [4]: > 128 µg/mL
MIC (K. pneumoniae 113250 [5]): > 128 µg/mL
MIC (MRSE 61589): 16 µg/mL (≈ 16.6 µM)
MIC (MSSE 81388): 16 µg/mL (≈ 16.6 µM)
Interpretation ([6]; UTBLP + novobiocin): Synergy (FICI ≤ 0.5 is synergistic)
Interpretation ([6]; UTBLP + rifampicin): Synergy (FICI ≤ 0.5 is synergistic)
MICUTBLP ([6]; plate with novobiocin): > 128 µg/mL
MICUTBLP ([6]; plate with rifampicin): > 128 µg/mL
MICUTBLP [MICcombo] [6, 11]: 16 µg/mL
MICUTBLP [MICcombo] [6, 12]: 16 µg/mL
MICantibiotic [MICcombo] [6, 13]: 128 µg/mL
MICantibiotic [MICcombo] [6, 14]: 2 µg/mL
Interpretation ([7]; UTBLP + novobiocin): Synergy (FICI ≤ 0.5 is synergistic)
Interpretation ([7]; UTBLP + rifampicin): Additive (0.5 < x ≤ 4 is additive)
MICUTBLP ([7]; plate with novobiocin): > 128 µg/mL
MICUTBLP ([7]; plate with rifampicin): > 128 µg/mL
MICUTBLP [MICcombo] [7, 11]: 16 µg/mL
MICUTBLP [MICcombo] [7, 12]: 16 µg/mL
MICantibiotic [MICcombo] [7, 13]: 128 µg/mL
MICantibiotic [MICcombo] [7, 14]: 256 µg/mL
Interpretation (P. aeruginosa PAO1; UTBLP + chloramphenicol): Synergy (FICI ≤ 0.5 is synergistic)
Interpretation (P. aeruginosa PAO1; UTBLP + niclosamide): Synergy (FICI ≤ 0.5 is synergistic)
Interpretation (P. aeruginosa PAO1; UTBLP + novobiocin): Synergy (FICI ≤ 0.5 is synergistic)
Interpretation (P. aeruginosa PAO1; UTBLP + rifampicin): Synergy (FICI ≤ 0.5 is synergistic)
MICUTBLP (P. aeruginosa PAO1; plate with chloramphenicol): > 128 µg/mL
MICUTBLP (P. aeruginosa PAO1; plate with niclosamide): > 128 µg/mL
MICUTBLP (P. aeruginosa PAO1; plate with novobiocin): > 128 µg/mL
MICUTBLP (P. aeruginosa PAO1; plate with rifampicin): > 128 µg/mL
MICUTBLP [MICcombo] (P. aeruginosa PAO1; [15]): 16 µg/mL
MICUTBLP [MICcombo] (P. aeruginosa PAO1; UTBLP in combination with niclosamide): 16 µg/mL
MICUTBLP [MICcombo] (P. aeruginosa PAO1; [11]): 16 µg/mL
MICUTBLP [MICcombo] (P. aeruginosa PAO1; [12]): 16 µg/mL
MICantibiotic [MICcombo] (P. aeruginosa PAO1; [16]): 2 µg/mL
MICantibiotic [MICcombo] (P. aeruginosa PAO1; niclosamide in combination with the UTBLP): 2 µg/mL
MICantibiotic [MICcombo] (P. aeruginosa PAO1; [13]): 32 µg/mL
MICantibiotic [MICcombo] (P. aeruginosa PAO1; [14]): 1 µg/mL
Interpretation (E. coli 94393; UTBLP + novobiocin): Synergy (FICI ≤ 0.5 is synergistic)
Interpretation (E. coli 94393; UTBLP + rifampicin): Synergy (FICI ≤ 0.5 is synergistic)
MICUTBLP (E. coli 94393; plate with novobiocin): 64 µg/mL
MICUTBLP (E. coli 94393; plate with rifampicin): 64 µg/mL
MICUTBLP [MICcombo] (E. coli 94393; [11]): 4 µg/mL
MICUTBLP [MICcombo] (E. coli 94393; [12]): 4 µg/mL
MICantibiotic [MICcombo] (E. coli 94393; [13]): 1 µg/mL
MICantibiotic [MICcombo] (E. coli 94393; [14]): 0.25 µg/mL
Interpretation (E. coli 94474; UTBLP + novobiocin): Synergy (FICI ≤ 0.5 is synergistic)
Interpretation (E. coli 94474; UTBLP + rifampicin): Synergy (FICI ≤ 0.5 is synergistic)
MICUTBLP (E. coli 94474; plate with novobiocin): > 128 µg/mL
MICUTBLP (E. coli 94474; plate with rifampicin): > 128 µg/mL
MICUTBLP [MICcombo] (E. coli 94474; [11]): 16 µg/mL
MICUTBLP [MICcombo] (E. coli 94474; [12]): 16 µg/mL
MICantibiotic [MICcombo] (E. coli 94474; [13]): 1 µg/mL
MICantibiotic [MICcombo] (E. coli 94474; [14]): 0.125 µg/mL
Interpretation (E. cloacae 118564; UTBLP + novobiocin): Synergy (FICI ≤ 0.5 is synergistic)
Interpretation (E. cloacae 118564; UTBLP + rifampicin): Synergy (FICI ≤ 0.5 is synergistic)
MICUTBLP (E. cloacae 118564; plate with novobiocin): > 128 µg/mL
MICUTBLP (E. cloacae 118564; plate with rifampicin): > 128 µg/mL
MICUTBLP [MICcombo] (E. cloacae 118564; [11]): 16 µg/mL
MICUTBLP [MICcombo] (E. cloacae 118564; [12]): 16 µg/mL
MICantibiotic [MICcombo] (E. cloacae 118564; [13]): 1 µg/mL
MICantibiotic [MICcombo] (E. cloacae 118564; [14]): 0.5 µg/mL
Interpretation (K. pneumoniae 113250 [8]; UTBLP + novobiocin): Synergy (FICI ≤ 0.5 is synergistic)
Interpretation (K. pneumoniae 113250 [8]; UTBLP + rifampicin): Synergy (FICI ≤ 0.5 is synergistic)
MICUTBLP (K. pneumoniae 113250 [8]; plate with novobiocin): > 128 µg/mL
MICUTBLP (K. pneumoniae 113250 [8]; plate with rifampicin): > 128 µg/mL
MICUTBLP [MICcombo] (K. pneumoniae 113250 [8]; [11]): 16 µg/mL
MICUTBLP [MICcombo] (K. pneumoniae 113250 [8]; [12]): 16 µg/mL
MICantibiotic [MICcombo] (K. pneumoniae 113250 [8]; [13]): 2 µg/mL
MICantibiotic [MICcombo] (K. pneumoniae 113250 [8]; [14]): 1 µg/mL
Interpretation (E. faecalis ATCC 29212 [9]; UTBLP + chloramphenicol): Additive (0.5 < x ≤ 4 is additive)
MICUTBLP (E. faecalis ATCC 29212 [9]; [17]): 32 µg/mL
MICUTBLP [MICcombo] (E. faecalis ATCC 29212 [9]; [15]): 4 µg/mL
MICchloramphenicol [MICcombo] (E. faecalis ATCC 29212 [9]; [16]): 4 µg/mL
Interpretation (E. faecium ATCC 27270 [10]; UTBLP + chloramphenicol): Additive (0.5 < x ≤ 4 is additive)
MICUTBLP (E. faecium ATCC 27270 [10]; [17]): 64 µg/mL
MICUTBLP [MICcombo] (E. faecium ATCC 27270 [10]; [15]): 4 µg/mL
MICchloramphenicol [MICcombo] (E. faecium ATCC 27270 [10]; [16]): 4 µg/mL
